How the values were obtained:
Type in all cases: in vivo
Alopecurus [1] = test: Example B1: pre-emergence herbicidal action, comparison with prior art; settings: 500 g of ai/ha, 3 weeks after application, scale 1-9
Excerpt: (§1) Monocotyledonous and dicotyledonous weeds are sown in standard soil in plastic pots. Immediately after sowing, the test substances are applied (500 l of water/ha) as an aqueous suspension (prepared using a 25% wettable powder (Example F3, b)) or as an emulsion (prepared using a 25% emulsion concentrate (Example F1, c)). The application rate is 500 g of active substance/ha. The test plants are subsequently grown under optimum conditions in a greenhouse. 3 weeks after the application, evaluation is carried out using a nine-level scale of ratings (1=complete damage, 9=no effect). Ratings of 1 to 4 (in particular 1 to 3) mean a good to very good herbicidal action. Test plants: Alopecurus (Alo), Avena (Ave), Lolium (Lot), Setaria (Set), Panicum (Pan), Sorghum (Sor), Digitaria (Dig), Echinocloa (Ech) and Brachiaria (Bra).

Avena [2] = test: as above; settings: 500 g of ai/ha, 3 weeks after application, scale 1-9
Excerpt: as §1

Brachiaria [3] = test: as above; settings: 500 g of ai/ha, 3 weeks after application, scale 1-9
Excerpt: as §1

Digitaria [4] = test: as above; settings: 500 g of ai/ha, 3 weeks after application, scale 1-9
Excerpt: as §1

Echinocloa [5] = test: as above; design: key: 1=complete damage; 9=no effect; Ratings of 1 to 4 (in particular 1 to 3) mean a good to very good herbicidal action; settings: 500 g of ai/ha, 3 weeks after application, scale 1-9
Excerpt: as §1

Lolium [6] = test: as above; design: key: 1=complete damage; 9=no effect; Ratings of 1 to 4 (in particular 1 to 3) mean a good to very good herbicidal action; settings: 500 g of ai/ha, 3 weeks after application, scale 1-9
Excerpt: as §1

Panicum [7] = test: as above; design: key: 1=complete damage; 9=no effect; Ratings of 1 to 4 (in particular 1 to 3) mean a good to very good herbicidal action; settings: 500 g of ai/ha, 3 weeks after application, scale 1-9
Excerpt: as §1

Setaria [8] = test: as above; design: key: 1=complete damage; 9=no effect; Ratings of 1 to 4 (in particular 1 to 3) mean a good to very good herbicidal action; settings: 500 g of ai/ha, 3 weeks after application, scale 1-9
Excerpt: as §1

Sorghum [9] = test: as above; design: key: 1=complete damage; 9=no effect; Ratings of 1 to 4 (in particular 1 to 3) mean a good to very good herbicidal action; settings: 500 g of ai/ha, 3 weeks after application, scale 1-9
Excerpt: as §1

Alopecurus [10] = test: Example B2: post-emergence herbicidal action, comparison with prior art; settings: 3- to 6-leaf stage, 500 g of ai/ha, 3 weeks after application, scale 1-9
Method: (§2) Monocotyledonous and dicotyledonous weeds are grown in standard soil in plastic pots under greenhouse conditions. The test substances are applied at the 3- to 6-leaf stage of the test plants. The test substances are applied (500 l of water/ha) as an aqueous suspension (prepared using a 25% wettable powder (Example F3, b)) or as an emulsion (prepared using a 25% emulsion concentrate (Example F1, c)) at an application rate of 500 g of active substance/ha. 3 weeks after the application, evaluation is carried out using a nine-level scale of ratings (1=complete damage, 9=no effect). Ratings of 1 to 4 (in particular 1 to 3) mean a good to very good herbicidal action. Test plants: Alopecurus (Alo), Avena (Ave), Lolium (Lol), Setaria (Set), Panicum (Pan), Sorghum (Sor), Digitaria (Dig), Echinocloa (Ech) and Brachiaria (Bra).

Avena [11] = test: as above; design: key: 1=complete damage; 9=no effect; Ratings of 1 to 4 (in particular 1 to 3) mean a good to very good herbicidal action; settings: 3- to 6-leaf stage, 500 g of ai/ha, 3 weeks after application, scale 1-9
Method: as §2

Brachiaria [12] = test: as above; design: key: 1=complete damage; 9=no effect; Ratings of 1 to 4 (in particular 1 to 3) mean a good to very good herbicidal action; settings: 3- to 6-leaf stage, 500 g of ai/ha, 3 weeks after application, scale 1-9
Method: as §2

Digitaria [13] = test: as above; design: key: 1=complete damage; 9=no effect; Ratings of 1 to 4 (in particular 1 to 3) mean a good to very good herbicidal action; settings: 3- to 6-leaf stage, 500 g of ai/ha, 3 weeks after application, scale 1-9
Method: as §2

Echinocloa [14] = test: as above; design: key: 1=complete damage; 9=no effect; Ratings of 1 to 4 (in particular 1 to 3) mean a good to very good herbicidal action; settings: 3- to 6-leaf stage, 500 g of ai/ha, 3 weeks after application, scale 1-9
Method: as §2

Lolium [15] = test: as above; design: key: 1=complete damage; 9=no effect; Ratings of 1 to 4 (in particular 1 to 3) mean a good to very good herbicidal action; settings: 3- to 6-leaf stage, 500 g of ai/ha, 3 weeks after application, scale 1-9
Method: as §2

Panicum [16] = test: as above; design: key: 1=complete damage; 9=no effect; Ratings of 1 to 4 (in particular 1 to 3) mean a good to very good herbicidal action; settings: 3- to 6-leaf stage, 500 g of ai/ha, 3 weeks after application, scale 1-9
Method: as §2

Setaria [17] = test: as above; design: key: 1=complete damage; 9=no effect; Ratings of 1 to 4 (in particular 1 to 3) mean a good to very good herbicidal action; settings: 3- to 6-leaf stage, 500 g of ai/ha, 3 weeks after application, scale 1-9
Method: as §2

Sorghum [18] = test: as above; design: key: 1=complete damage; 9=no effect; Ratings of 1 to 4 (in particular 1 to 3) mean a good to very good herbicidal action; settings: 3- to 6-leaf stage, 500 g of ai/ha, 3 weeks after application, scale 1-9
Method: as §2

Avena [19] = test: Example B3: pre-emergence herbicidal action of compounds of the invention; design: key: 1=complete damage; 9=no effect; Ratings of 1 to 4 (in particular 1 to 3) mean a good to very good herbicidal action; settings: 500 g of active substance/ha, 3 weeks after application, scale 1-9
Method: as §1, with “grown” for “sown”, “Directly” for “Immediately”, “greenhouse” for “greenhouse.”, “plants:” for “plants: Alopecurus (Alo),”, “(Lol),” for “(Lot),”, “(Set).” for “(Set), Panicum (Pan), Sorghum (Sor), Digitaria (Dig), Echinocloa (Ech) and Brachiaria (Bra).”

Lolium [20] = test: as above; design: key: 1=complete damage; 9=no effect; Ratings of 1 to 4 (in particular 1 to 3) mean a good to very good herbicidal action; settings: 500 g of active substance/ha, 3 weeks after application, scale 1-9
Method: as §1, with “grown” for “sown”, “Directly” for “Immediately”, “greenhouse” for “greenhouse.”, “plants:” for “plants: Alopecurus (Alo),”, “(Lol),” for “(Lot),”, “(Set).” for “(Set), Panicum (Pan), Sorghum (Sor), Digitaria (Dig), Echinocloa (Ech) and Brachiaria (Bra).”

Setaria [21] = test: as above; design: key: 1=complete damage; 9=no effect; Ratings of 1 to 4 (in particular 1 to 3) mean a good to very good herbicidal action; settings: 500 g of active substance/ha, 3 weeks after application, scale 1-9
Method: as §1, with “grown” for “sown”, “Directly” for “Immediately”, “greenhouse” for “greenhouse.”, “plants:” for “plants: Alopecurus (Alo),”, “(Lol),” for “(Lot),”, “(Set).” for “(Set), Panicum (Pan), Sorghum (Sor), Digitaria (Dig), Echinocloa (Ech) and Brachiaria (Bra).”

Avena [22] = test: Example B4: post-emergence herbicidal action of compounds of the invention; design: key: 1=complete damage; 9=no effect; Ratings of 1 to 4 (in particular 1 to 3) mean a good to very good herbicidal action; settings: 3- to 6-leaf stage, 250 g of active substance/ha, 3 weeks after application, scale 1-9
Method: as §2, with “of 250” for “of 500”, “plants:” for “plants: Alopecurus (Alo),”, “Setaria (Set).” for “Setaria (Set), Panicum (Pan), Sorghum (Sor), Digitaria (Dig), Echinocloa (Ech) and Brachiaria (Bra).”

Lolium [23] = test: as above; design: key: 1=complete damage; 9=no effect; Ratings of 1 to 4 (in particular 1 to 3) mean a good to very good herbicidal action; settings: 3- to 6-leaf stage, 250 g of active substance/ha, 3 weeks after application, scale 1-9
Method: as §2, with “of 250” for “of 500”, “plants:” for “plants: Alopecurus (Alo),”, “Setaria (Set).” for “Setaria (Set), Panicum (Pan), Sorghum (Sor), Digitaria (Dig), Echinocloa (Ech) and Brachiaria (Bra).”

Setaria [24] = test: as above; design: key: 1=complete damage; 9=no effect; Ratings of 1 to 4 (in particular 1 to 3) mean a good to very good herbicidal action; settings: 3- to 6-leaf stage, 250 g of active substance/ha, 3 weeks after application, scale 1-9
Method: as §2, with “of 250” for “of 500”, “plants:” for “plants: Alopecurus (Alo),”, “Setaria (Set).” for “Setaria (Set), Panicum (Pan), Sorghum (Sor), Digitaria (Dig), Echinocloa (Ech) and Brachiaria (Bra).”

Row | Structure (SMILES) | Pre-emergence action, Alo (rating) (Alopecurus [1]) | Pre-emergence action, Ave (rating) (Avena [2]) | Pre-emergence action, Bra (rating) (Brachiaria [3]) | Pre-emergence action, Dig (rating) (Digitaria [4]) | Pre-emergence action, Ech (rating) (Echinocloa [5]) | Pre-emergence action, Lol (rating) (Lolium [6]) | Pre-emergence action, Pan (rating) (Panicum [7]) | Pre-emergence action, Set (rating) (Setaria [8]) | Pre-emergence action, Sor (rating) (Sorghum [9]) | Post-emergence action, Alo (rating) (Alopecurus [10]) | Post-emergence action, Ave (rating) (Avena [11]) | Post-emergence action, Bra (rating) (Brachiaria [12]) | Post-emergence action, Dig (rating) (Digitaria [13]) | Post-emergence action, Ech (rating) (Echinocloa [14]) | Post-emergence action, Lol (rating) (Lolium [15]) | Post-emergence action, Pan (rating) (Panicum [16]) | Post-emergence action, Set (rating) (Setaria [17]) | Post-emergence action, Sor (rating) (Sorghum [18]) | Post-emergence action, Ave (rating) (Avena [22]) | Post-emergence action, Lol (rating) (Lolium [23]) | further results
1 | Cc1cc(C)c(-c2c(O)n3n(c2=O)CCOCC3)c(C)c1 [1.001] | 3 | 4 | 2 | 2 | 1 | 1 | 1 | 1 | 1 | 2 | 1 | 1 | 1 | 1 | 1 | 1 | 1 | 1 | 1 | 1 | Pre-emergence action, Ave (rating) (Avena [19]): 4; Pre-emergence action, Lol (rating) (Lolium [20]): 1; Pre-emergence action, Set (rating) (Setaria [21]): 1; Post-emergence action, Set (rating) (Setaria [24]): 2
2 | Cc1cc(C)c(C2C(=O)N3CCCCCN3C2=O)c(C)c1 [compound A, reference compound] | 5 | 7 | 3 | 7 | 5 | 4 | 7 | 3 | 6 | 5 | 2 | 2 | 5 | 1 | 5 | 2 | 4 | 3 | – | – | –
3 | CCc1cc(Br)cc(C)c1-c1c(OC(=O)C(C)(C)C)n2n(c1=O)CCOCC2 [1.085] | – | – | – | – | – | – | – | – | – | – | – | – | – | – | – | – | – | – | 1 | 2 | Post-emergence action, Set (rating) (Setaria [24]): 2
